Experiment: Side effects on the skin or subcutaneous tissue in test of intravenous administration of compound A composition to healthy subjects
Assay type: in vivo, human
Details: for Erythema (number of subjects) / Hyperhidrosis (number of subjects) / Number of subjects who showed at least one symptom / Pruritus (number of subjects): N=6 healthy adult males, within 24 hours after initiation of administration
Method: Water for injection (5 mL) was added to each of the obtained 0 mg formulation and 25 mg formulation to dissolve the freeze-dried compositions (freeze-dried cakes), thus obtaining aqueous solutions for injection. When the 25 mg formulation was dissolved in 5 mL of water for injection, 5.21 mL of the aqueous solution composition (25 mg formulation (aqueous solution for injection)) shown in Table 1 comprising 5 mg/mL of the active ingredient (compound A) was reconstituted. Further, according to the compositions shown in Table 3 below, administration solutions were prepared by mixing the 25 mg formulation (aqueous solution for injection), the 0 mg formulation (aqueous solution for injection), and a physiological saline (physiological saline solution).
Each of the obtained administration solutions was intravenously administered with a syringe pump over the administration times shown in Table 3. The number of subjects to which each solution was administered was 6 healthy adult males (aged 20 to 40 years old) (N=6).
The number of subjects who developed, within 24 hours after the initiation of administration, side effects that could appear on the skin or subcutaneous tissue (erythema, hyperhidrosis, or pruritus) was recorded.

[1] = administration solution 1, 15 mg compound A i.v. over 2 hours
[2] = administration solution 2, 7.5 mg compound A i.v. over 2 hours
[3] = administration solution 3, 15 mg compound A i.v. over 5 minutes
[4] = administration solution 4, 7.5 mg compound A i.v. over 5 minutes
[5] = administration solution 5, 15 mg compound A i.v. over 1 minute
[6] = administration solution 6, 7.5 mg compound A i.v. over 1 minute

In the case of `Cc1ccccc1C(=O)Nc1ccc(C(=O)N2CCCC(OP(=O)([O-])[O-])c3cc(Cl)ccc32)c(C)c1.[Na+].[Na+]` (centres unmarked) [compound A], the “erythema, hyperhidrosis, or pruritus” value (7.5 mg or 15 mg of compound A intravenously administered over a period of 1 minute or 5 minutes (administration solutions 3 to 6)) was “frequently observed”, the “side effects that could appear on the skin or subcutaneous tissue, such as erythema, hyperhidrosis, or pruritus” value (7.5 mg or 15 mg of compound A slowly administered over a period of 2 hours (administration solutions 1 and 2)) was “no side effects” and the “Erythema (number of subjects)” value [1] was 0 human. For the same molecule, the “Hyperhidrosis (number of subjects)” value [1] was 0 human, the “Number of subjects who showed at least one symptom” value (from here on “Number of subjects who showed”) [1] was 0 human and the “Pruritus (number of subjects)” value [1] was 0 human. The “Erythema (number of subjects)” value [2] was 0 human, the “Hyperhidrosis (number of subjects)” value [2] was 0 human and the “Number of subjects who showed” value [2] was 0 human. For the same molecule, the “Pruritus (number of subjects)” value [2] was 0 human, the “Erythema (number of subjects)” value [3] was 4 human and the “Hyperhidrosis (number of subjects)” value [3] was 2 human. For the same molecule, the “Number of subjects who showed” value [3] was 5 human, the “Pruritus (number of subjects)” value [3] was 4 human and the “Erythema (number of subjects)” value [4] was 3 human. For the same molecule, the “Hyperhidrosis (number of subjects)” value [4] was 2 human, the “Number of subjects who showed” value [4] was 4 human and the “Pruritus (number of subjects)” value [4] was 3 human. The “Erythema (number of subjects)” value [5] was 5 human, the “Hyperhidrosis (number of subjects)” value [5] was 2 human and the “Number of subjects who showed” value [5] was 5 human. For the same molecule, the “Pruritus (number of subjects)” value [5] was 4 human, the “Erythema (number of subjects)” value [6] was 5 human and the “Hyperhidrosis (number of subjects)” value [6] was 0 human. The “Number of subjects who showed” value [6] was 5 human and the “Pruritus (number of subjects)” value [6] was 4 human.

Reference: US20220152064A1, “BENZOAZEPINE COMPOUND-CONTAINING PHARMACEUTICAL COMPOSITION” (OTSUKA PHARMACEUTICAL CO., LTD., priority 2019, published 2022)
